Assay in all cases: Growth inhibitory activity of compounds on BaF3 cell lines stably transfected with kinase (MTS, 48 h)
Common to all, as to format: cell-based

Assay [1] addresses T1, various mutants of kinase EGFR (BaF3 cell lines stably transfected with kinase) (Homo sapiens, UniProt P00533).
T1 construct: other: BaF3 cells stably transfected with EGFR Δ19Del; MTS, 48 h; other: BaF3 cell line stably transfected with EGFR Δ19Del
The following applies: BaF3 cells stably transfected with EGFR Δ19Del, read-out: IC50, growth inhibition, Δ19Del. Here is the method:
(§1) The activity of compounds against various mutants of kinase EGFR was evaluated by their effect of inhibiting growth of BaF3 cell lines stably transfected with kinase. The specific test method was given as follows:
(§2) 1) Culture medium: DMEM (Dulbecco’s modified eagle medium) or RPMI 1640 (containing 10% fetal bovine serum, 100 µg/mL ampicillin, 100 µg/mL streptomycin).
(§3) 2) Reagent: MTS reaction solution (containing 2 mg/mL of MTS [3-(4,5-dimethylthiazol-2-yl)-5-(3-carboxymethoxyphenyl)-2-(4-sulfophenyl)-2H-tetrazoliu m, inner Salt]; 100 µg/mL of PES ([…])).
(§4) 3) Compound test: cells were incubated into a 96-well culture plate, the volume of cytosol was 90 µL, and then 10 µL of the compound at each gradient concentration was added. That is, the highest concentration was 10 µM, which was diluted stepwise by ⅓, and 8 concentration points were set in total; 0.1% DMSO (dimethyl sulfoxide) was contained in the system. The cell plate with uniformly mixed compound was cultured in a cell culture incubator (37° C.; 5% CO2) for 48 h, then 20 µL of MTS reaction solution was added, uniformly mixed and incubated in the cell culture incubator (37° C.; 5% CO2) for 1-4 h. OD values at 490 nm were measured by a microplate reader (VARIOSKAN FLASH, Thermo). Two parallels were set in each group of experiments, with 0.1% (a final concentration) DMSO as a negative control, and a culture medium without cells and compounds as a blank control. The cell growth inhibition rate was calculated by the following formula: […]
(§5) 4) IC50 calculation: The semi-inhibitory concentration of the compounds acting on cells was calculated using GradPad Prism 5 software according to the measured cell growth inhibition rate.

For assay [2], the target named is T2, various mutants of kinase EGFR (BaF3 cell lines stably transfected with kinase) (Homo sapiens, UniProt P00533, C797S/L858R/T790M).
T2 construct: expressed in transfected cells; host or cells: BaF3
The following applies: BaF3 cells stably transfected with EGFR L858R/T790M/C797S, read-out: IC50, growth inhibition, L858R/T790M/C797S. Here is the method:
as §1, §2, §3, §4, §5

Assay [3] deals with T3, various mutants of kinase EGFR (BaF3 cell lines stably transfected with kinase) (Homo sapiens, UniProt P00533, L858R).
T3 construct: expressed in transfected cells; host or cells: BaF3
T3 sequence (P00533 25-1210 L858R): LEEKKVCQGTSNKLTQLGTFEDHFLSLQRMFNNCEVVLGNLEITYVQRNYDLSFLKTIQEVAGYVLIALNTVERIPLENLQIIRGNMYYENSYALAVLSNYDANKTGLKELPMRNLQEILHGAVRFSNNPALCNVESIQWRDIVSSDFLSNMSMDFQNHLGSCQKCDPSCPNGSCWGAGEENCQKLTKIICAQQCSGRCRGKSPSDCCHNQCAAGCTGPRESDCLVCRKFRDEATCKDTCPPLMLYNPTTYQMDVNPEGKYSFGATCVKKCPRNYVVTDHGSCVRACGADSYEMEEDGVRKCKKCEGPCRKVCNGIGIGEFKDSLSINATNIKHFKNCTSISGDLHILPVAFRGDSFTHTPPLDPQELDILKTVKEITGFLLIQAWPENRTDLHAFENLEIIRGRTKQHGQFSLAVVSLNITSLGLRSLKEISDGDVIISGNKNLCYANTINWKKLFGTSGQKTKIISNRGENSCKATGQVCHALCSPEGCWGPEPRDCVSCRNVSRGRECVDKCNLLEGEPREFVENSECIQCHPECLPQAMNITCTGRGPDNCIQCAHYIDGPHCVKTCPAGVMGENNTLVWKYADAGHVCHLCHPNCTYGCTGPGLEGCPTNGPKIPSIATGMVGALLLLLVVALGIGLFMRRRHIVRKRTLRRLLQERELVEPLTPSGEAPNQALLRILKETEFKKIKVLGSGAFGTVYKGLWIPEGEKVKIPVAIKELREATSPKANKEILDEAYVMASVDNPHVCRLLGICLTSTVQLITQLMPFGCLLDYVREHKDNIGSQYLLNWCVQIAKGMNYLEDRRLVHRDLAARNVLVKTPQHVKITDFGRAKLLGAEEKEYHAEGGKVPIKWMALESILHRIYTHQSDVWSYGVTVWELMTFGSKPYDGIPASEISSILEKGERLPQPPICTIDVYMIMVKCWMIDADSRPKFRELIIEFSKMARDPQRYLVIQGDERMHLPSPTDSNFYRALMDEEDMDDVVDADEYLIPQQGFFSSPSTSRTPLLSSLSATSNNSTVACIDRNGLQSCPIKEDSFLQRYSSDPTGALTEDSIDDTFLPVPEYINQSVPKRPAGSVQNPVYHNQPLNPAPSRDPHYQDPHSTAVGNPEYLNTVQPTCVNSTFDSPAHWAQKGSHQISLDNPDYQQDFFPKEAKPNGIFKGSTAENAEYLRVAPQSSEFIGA
As to conditions: BaF3 cells stably transfected with EGFR L858R, read-out: IC50, growth inhibition, L858R. Here is the method:
as §1, §2, §3, §4, §5

For assay [4], the target named is T4, various mutants of kinase EGFR (BaF3 cell lines stably transfected with kinase) (Homo sapiens, UniProt P00533, L858R/T790M).
T4 construct: expressed in transfected cells; host or cells: BaF3
T4 sequence (P00533 25-1210 T790M/L858R): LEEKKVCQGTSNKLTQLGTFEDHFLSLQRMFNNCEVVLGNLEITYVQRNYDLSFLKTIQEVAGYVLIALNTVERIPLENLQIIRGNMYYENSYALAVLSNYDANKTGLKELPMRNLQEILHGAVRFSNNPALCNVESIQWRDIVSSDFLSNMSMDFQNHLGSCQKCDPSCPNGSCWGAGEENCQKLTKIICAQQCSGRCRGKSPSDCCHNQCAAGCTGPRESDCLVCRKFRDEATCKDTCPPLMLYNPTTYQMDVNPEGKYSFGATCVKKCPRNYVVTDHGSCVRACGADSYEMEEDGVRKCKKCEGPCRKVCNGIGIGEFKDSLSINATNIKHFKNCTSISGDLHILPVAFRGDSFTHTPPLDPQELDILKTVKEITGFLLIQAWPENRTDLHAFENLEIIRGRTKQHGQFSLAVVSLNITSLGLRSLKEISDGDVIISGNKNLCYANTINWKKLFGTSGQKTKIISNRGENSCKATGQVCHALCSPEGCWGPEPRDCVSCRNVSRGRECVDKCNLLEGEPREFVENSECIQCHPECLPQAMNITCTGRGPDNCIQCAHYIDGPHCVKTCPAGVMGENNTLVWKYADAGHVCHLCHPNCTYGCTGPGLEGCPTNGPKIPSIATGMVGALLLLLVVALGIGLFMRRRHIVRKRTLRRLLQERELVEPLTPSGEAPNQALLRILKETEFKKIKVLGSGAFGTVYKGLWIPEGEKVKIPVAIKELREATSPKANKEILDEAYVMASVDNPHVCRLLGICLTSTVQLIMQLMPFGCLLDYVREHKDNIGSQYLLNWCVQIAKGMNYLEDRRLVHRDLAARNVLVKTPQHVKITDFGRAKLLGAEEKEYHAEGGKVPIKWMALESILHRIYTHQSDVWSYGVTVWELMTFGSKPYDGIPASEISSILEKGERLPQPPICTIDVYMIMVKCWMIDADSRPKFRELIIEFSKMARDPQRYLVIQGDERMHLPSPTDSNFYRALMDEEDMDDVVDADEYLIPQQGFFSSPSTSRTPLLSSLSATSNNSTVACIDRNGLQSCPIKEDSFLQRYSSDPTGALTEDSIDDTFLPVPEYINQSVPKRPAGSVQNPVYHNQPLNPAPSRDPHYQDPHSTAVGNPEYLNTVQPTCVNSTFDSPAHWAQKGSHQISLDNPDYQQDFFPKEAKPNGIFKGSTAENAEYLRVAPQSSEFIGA
The following applies: BaF3 cells stably transfected with EGFR L858R/T790M, read-out: IC50, growth inhibition, L858R/T790M. Here is the method: as §1, §2, §3, §4, §5

For assay [5], the target named is T5, various mutants of kinase EGFR (BaF3 cell lines stably transfected with kinase) (Homo sapiens, UniProt P00533, T790M/C797S, form not given).
T5 construct: other: BaF3 cells stably transfected with EGFR Δ19Del/T790M/C797S; MTS, 48; other: BaF3 cell line stably transfected with EGFR Δ19Del/T790M/C7
T5 sequence (P00533 with tags, fused parts or gaps DEL746-750/T790M/C797S, form open): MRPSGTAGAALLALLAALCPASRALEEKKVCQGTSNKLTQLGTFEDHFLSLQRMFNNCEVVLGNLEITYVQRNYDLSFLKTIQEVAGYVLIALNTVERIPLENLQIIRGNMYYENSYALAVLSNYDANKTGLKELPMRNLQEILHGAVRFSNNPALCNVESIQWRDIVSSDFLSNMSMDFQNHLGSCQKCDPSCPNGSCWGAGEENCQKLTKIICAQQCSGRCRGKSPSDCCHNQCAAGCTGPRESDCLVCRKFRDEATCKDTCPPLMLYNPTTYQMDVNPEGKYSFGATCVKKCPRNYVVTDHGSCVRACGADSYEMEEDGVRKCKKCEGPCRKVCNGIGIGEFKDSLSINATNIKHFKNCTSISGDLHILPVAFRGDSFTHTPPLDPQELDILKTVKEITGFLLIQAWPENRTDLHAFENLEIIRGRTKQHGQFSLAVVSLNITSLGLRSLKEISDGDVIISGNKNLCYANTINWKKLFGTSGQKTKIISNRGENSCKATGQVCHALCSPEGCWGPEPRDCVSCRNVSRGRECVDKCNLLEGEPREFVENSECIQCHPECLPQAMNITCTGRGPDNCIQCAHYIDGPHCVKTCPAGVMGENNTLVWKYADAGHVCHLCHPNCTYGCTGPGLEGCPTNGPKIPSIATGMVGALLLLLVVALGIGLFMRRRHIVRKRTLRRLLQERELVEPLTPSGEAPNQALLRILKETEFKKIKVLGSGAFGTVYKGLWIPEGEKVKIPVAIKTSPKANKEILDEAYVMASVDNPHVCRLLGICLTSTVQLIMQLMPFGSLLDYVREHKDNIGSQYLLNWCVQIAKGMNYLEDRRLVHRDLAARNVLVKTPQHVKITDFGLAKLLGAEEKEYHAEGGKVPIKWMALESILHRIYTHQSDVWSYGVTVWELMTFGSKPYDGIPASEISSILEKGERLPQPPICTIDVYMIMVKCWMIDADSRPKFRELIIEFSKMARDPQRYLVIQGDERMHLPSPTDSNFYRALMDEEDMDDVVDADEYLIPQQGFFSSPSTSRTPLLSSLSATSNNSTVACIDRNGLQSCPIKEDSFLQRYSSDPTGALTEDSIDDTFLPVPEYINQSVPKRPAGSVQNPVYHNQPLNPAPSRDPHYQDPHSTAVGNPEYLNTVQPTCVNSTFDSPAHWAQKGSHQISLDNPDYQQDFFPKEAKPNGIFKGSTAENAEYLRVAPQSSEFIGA
The following applies: BaF3 cells stably transfected with EGFR Δ19Del/T790M/C797S, read-out: IC50, growth inhibition, Δ19Del/T790M/C797S. The method, then:
as §1, §2, §3, §4, §5

The target in assay [6] is T6, various mutants of kinase EGFR (BaF3 cell lines stably transfected with kinase) (Homo sapiens, UniProt P00533, T790M, form not given).
T6 construct: other: BaF3 cells stably transfected with EGFR Δ19Del/T790M; MTS, 48 h; other: BaF3 cell line stably transfected with EGFR Δ19Del/T790M; MTS, 48
T6 sequence (P00533 with tags, fused parts or gaps DEL746-750/T790M, form open): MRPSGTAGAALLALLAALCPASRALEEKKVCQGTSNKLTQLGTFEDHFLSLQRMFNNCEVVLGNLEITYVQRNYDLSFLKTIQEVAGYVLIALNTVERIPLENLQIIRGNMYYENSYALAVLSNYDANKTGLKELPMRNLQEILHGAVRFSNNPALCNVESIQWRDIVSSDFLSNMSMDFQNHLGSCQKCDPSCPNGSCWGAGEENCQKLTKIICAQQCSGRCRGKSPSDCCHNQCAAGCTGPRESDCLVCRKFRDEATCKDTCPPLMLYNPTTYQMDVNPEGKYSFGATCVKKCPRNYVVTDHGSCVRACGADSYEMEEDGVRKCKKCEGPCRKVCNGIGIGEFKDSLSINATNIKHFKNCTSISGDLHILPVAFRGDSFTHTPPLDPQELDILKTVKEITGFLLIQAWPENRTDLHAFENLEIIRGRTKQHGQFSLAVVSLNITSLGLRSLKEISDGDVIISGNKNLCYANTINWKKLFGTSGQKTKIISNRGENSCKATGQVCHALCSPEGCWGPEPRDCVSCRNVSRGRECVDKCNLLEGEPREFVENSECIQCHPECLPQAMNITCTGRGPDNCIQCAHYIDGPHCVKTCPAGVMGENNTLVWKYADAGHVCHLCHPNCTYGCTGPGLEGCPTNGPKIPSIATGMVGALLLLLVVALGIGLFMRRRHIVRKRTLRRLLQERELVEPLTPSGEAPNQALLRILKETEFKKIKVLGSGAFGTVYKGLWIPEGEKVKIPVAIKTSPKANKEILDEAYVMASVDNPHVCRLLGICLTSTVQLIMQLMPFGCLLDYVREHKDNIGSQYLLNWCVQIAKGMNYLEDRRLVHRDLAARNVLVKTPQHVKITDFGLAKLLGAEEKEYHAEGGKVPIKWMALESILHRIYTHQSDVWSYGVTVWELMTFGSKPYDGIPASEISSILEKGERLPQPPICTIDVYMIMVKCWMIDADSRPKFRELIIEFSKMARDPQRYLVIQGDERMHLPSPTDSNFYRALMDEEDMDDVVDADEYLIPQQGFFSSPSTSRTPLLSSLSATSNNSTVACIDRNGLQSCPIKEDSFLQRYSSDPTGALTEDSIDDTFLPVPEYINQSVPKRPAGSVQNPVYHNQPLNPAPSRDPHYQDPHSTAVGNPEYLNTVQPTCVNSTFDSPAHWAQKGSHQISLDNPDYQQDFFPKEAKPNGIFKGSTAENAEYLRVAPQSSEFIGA
The following applies: BaF3 cells stably transfected with EGFR Δ19Del/T790M, read-out: IC50, growth inhibition, Δ19Del/T790M. The method, then:
as §1, §2, §3, §4, §5

For `C=Cc1cc(Nc2ncc(Cl)c(Nc3ccc4nccnc4c3N(C)S(C)(=O)=O)n2)c(OC(F)(F)F)cc1N1CCC(N2CCN(C)CC2)CC1` [Compound I-23], the IC50 in assay [1], in assay [2], in assay [3], in assay [4], in assay [5] and in assay [6] was ≤ 50 nM throughout.

Turning to `COc1cc(N2CCC(N3CCN(C)CC3)CC2)ccc1Nc1ncc(F)c(Nc2ccc3nccnc3c2N(C)S(C)(=O)=O)n1` [Compound I-24], the IC50 in assay [1], in assay [2], in assay [3], in assay [4], in assay [5] and in assay [6] was 50 to 500 nM throughout.

For the compound `COc1cc(N2CCC(N3CCN(C)CC3)CC2)c(C)cc1Nc1ncc(F)c(Nc2ccc3nccnc3c2N(C)S(C)(=O)=O)n1` [Compound I-25], the IC50 in assay [1] is ≤ 50 nM; in assay [2], ≤ 50 nM; in assay [3], ≤ 50 nM; in assay [4], ≤ 50 nM; in assay [5], ≤ 50 nM; in assay [6], 50 to 500 nM.

As for `CCc1cc(Nc2ncc(F)c(Nc3ccc4nccnc4c3N(C)S(C)(=O)=O)n2)c(OC)cc1N1CCC(N2CCN(C)CC2)CC1` [Compound I-26], the IC50 in assay [1], in assay [2], in assay [3], in assay [4], in assay [5] and in assay [6] was ≤ 50 nM each time.

Regarding `COc1cc(N2CCC(N3CCN(C)CC3)CC2)ccc1Nc1ncc(C#N)c(Nc2ccc3nccnc3c2N(C)S(C)(=O)=O)n1` [Compound I-27], the IC50 in assay [1] fell in the range of 500 to 2500 nM; in assay [2], 500 to 2500 nM; in assay [3], 50 to 500 nM; in assay [4], 500 to 2500 nM; in assay [5] it was 500 to 2500 nM; in assay [6], 500 to 2500 nM.

As for `COc1cc(N2CCC(N3CCN(C)CC3)CC2)c(C)cc1Nc1ncc(C#N)c(Nc2ccc3nccnc3c2N(C)S(C)(=O)=O)n1` [Compound I-28], the IC50 in assay [1], in assay [2], in assay [3], in assay [4], in assay [5] and in assay [6] was 50 to 500 nM each time.

On to `CCc1cc(Nc2ncc(C#N)c(Nc3ccc4nccnc4c3N(C)S(C)(=O)=O)n2)c(OC)cc1N1CCC(N2CCN(C)CC2)CC1` [Compound I-29], for which the IC50 is 50 to 500 nM in assay [1]; ≤ 50 nM in assay [2]; 50 to 500 nM in assay [3]; 50 to 500 nM in assay [4]; 50 to 500 nM in assay [5]; 50 to 500 nM in assay [6].

For `COc1cc(N2CCC(N3CCN(C)CC3)CC2)ccc1Nc1ncc([N+](=O)[O-])c(Nc2ccc3nccnc3c2N(C)S(C)(=O)=O)n1` [Compound I-30], the IC50 was in the range of 500 to 2500 nM in assay [1]; 500 to 2500 nM in assay [2]; 500 to 2500 nM in assay [3]; 50 to 500 nM in assay [4]; 50 to 500 nM in assay [5]; 500 to 2500 nM in assay [6].

In the case of `COc1cc(N2CCC(N3CCN(C)CC3)CC2)c(C)cc1Nc1ncc([N+](=O)[O-])c(Nc2ccc3nccnc3c2N(C)S(C)(=O)=O)n1` [Compound I-31], the IC50 in assay [1] was 50 to 500 nM; in assay [2] it was ≤ 50 nM; in assay [3], ≤ 50 nM; in assay [4], ≤ 50 nM; in assay [5], ≤ 50 nM; in assay [6], 50 to 500 nM.

Take `CCc1cc(Nc2ncc([N+](=O)[O-])c(Nc3ccc4nccnc4c3N(C)S(C)(=O)=O)n2)c(OC)cc1N1CCC(N2CCN(C)CC2)CC1` [Compound I-32]: the IC50 in assay [1], in assay [2], in assay [3], in assay [4], in assay [5] and in assay [6] was ≤ 50 nM throughout.

Regarding `COc1cc(N2CCC(N3CCN(C)CC3)CC2)ccc1Nc1ncc(C(F)(F)F)c(Nc2ccc3nccnc3c2N(C)S(C)(=O)=O)n1` [Compound I-33], the IC50 in assay [1] is 50 to 500 nM; in assay [2], 50 to 500 nM; in assay [3], ≤ 50 nM; in assay [4] it was ≤ 50 nM; in assay [5], ≤ 50 nM; in assay [6], ≤ 50 nM.

`COc1cc(N2CCC(N3CCN(C)CC3)CC2)c(C)cc1Nc1ncc(C(F)(F)F)c(Nc2ccc3nccnc3c2N(C)S(C)(=O)=O)n1` [Compound I-34]: the IC50 in assay [1], in assay [2], in assay [3], in assay [4], in assay [5] and in assay [6] was ≤ 50 nM each time.

Take `CCc1cc(Nc2ncc(C(F)(F)F)c(Nc3ccc4nccnc4c3N(C)S(C)(=O)=O)n2)c(OC)cc1N1CCC(N2CCN(C)CC2)CC1` [Compound I-35]: the IC50 in assay [1], in assay [2], in assay [3], in assay [4], in assay [5] and in assay [6] was ≤ 50 nM each time.

As to `Cc1cc(Nc2ncc(Br)c(Nc3ccc4nccnc4c3N(C)S(C)(=O)=O)n2)c(OC(C)C)cc1C1CCN(C)CC1` [Compound I-37], the IC50 was 500 to 2500 nM in assay [1]; 50 to 500 nM in assay [2]; 500 to 2500 nM in assay [3]; 50 to 500 nM in assay [4]; ≤ 50 nM in assay [5]; 50 to 500 nM in assay [6].

`COc1cc(N2CCN(C)CC2)ccc1Nc1ncc(Br)c(Nc2ccc3nccnc3c2N(C)S(C)(=O)=O)n1` [Compound I-38]: the IC50 is 50 to 500 nM in assay [1]; ≤ 50 nM in assay [2]; 50 to 500 nM in assay [3]; ≤ 50 nM in assay [4]; ≤ 50 nM in assay [5]; ≤ 50 nM in assay [6].

Turning to `CCOc1cc(N2CCN(C)CC2)ccc1Nc1ncc(Br)c(Nc2ccc3nccnc3c2N(C)S(C)(=O)=O)n1` [Compound I-39], the IC50 in assay [1] is 500 to 2500 nM; in assay [2] it was ≤ 50 nM; in assay [3], 500 to 2500 nM; in assay [4], 50 to 500 nM; in assay [5] it was ≤ 50 nM; in assay [6], 50 to 500 nM.

Consider `CN1CCN(c2ccc(Nc3ncc(Br)c(Nc4ccc5nccnc5c4N(C)S(C)(=O)=O)n3)cc2)CC1` [Compound I-40], for which the IC50 in assay [1], in assay [2], in assay [3], in assay [4], in assay [5] and in assay [6] was ≤ 50 nM in each case.

`COc1cc(N2CCC(N3CCCC3)CC2)ccc1Nc1ncc(Br)c(Nc2ccc3nccnc3c2N(C)S(C)(=O)=O)n1` [Compound I-41]: the IC50 in assay [1], in assay [2], in assay [3], in assay [4], in assay [5] and in assay [6] was ≤ 50 nM throughout.

On to `COc1cc(N2CCC(N(C)C)C2)ccc1Nc1ncc(Br)c(Nc2ccc3nccnc3c2N(C)S(C)(=O)=O)n1` (stereo not drawn) [Compound I-43], for which the IC50 in assay [1] is 50 to 500 nM; in assay [2], ≤ 50 nM; in assay [3], 50 to 500 nM; in assay [4] it was ≤ 50 nM; in assay [5], ≤ 50 nM; in assay [6], ≤ 50 nM.

Consider `COc1cc(N2CCC(O)CC2)ccc1Nc1ncc(Br)c(Nc2ccc3nccnc3c2N(C)S(C)(=O)=O)n1` [Compound I-44], for which the IC50 in assay [1] is 50 to 500 nM; in assay [2], ≤ 50 nM; in assay [3], 50 to 500 nM; in assay [4] it was ≤ 50 nM; in assay [5] it was ≤ 50 nM; in assay [6], ≤ 50 nM.

For the origin of these results see patent US20230310428A1, “EGFR INHIBITOR AND PREPARATION METHOD AND USE THEREOF” (HONGYUN BIOTECH CO., LTD., priority 2020, published 2023).
